How the values were obtained:
Ba/F3 TYK2 = test: Ba/F3 cell proliferation analysis (CellTiter-Glo), TYK2; assay type: cell-based, murine; details: Mus musculus, BaF3; Ba/F3 cells, 72 hours at 37° C., cell viability
Protocol: (§1) Cell Proliferation Analysis
(§2) CellTiter-Glo® Luminescent cell viability assay (Promega) was used to assess cell survival following treatment with the compounds described herein. Cells were seeded into 384 well plates with the EL406 Combination Washer Dispenser (BioTek Instruments, Inc.), and the compounds were injected into the cells culture media with the JANUS Automated Workstation (PerkinElmer Inc.). Cells were treated with a series diluted inhibitors (20 to 0.04 μM) for 72 hours at 37° C. Luminescent measurement is performed using the 2104 Envision® Multilabel Reader (PerkinElmer Inc.). The cell lines employed include Ba/F3 (a murine interleukin-3 dependent pro-B cell line), NKL (a Natural Killer Cell Lymphoma (NKCL) cell line), CMK (an Acute Megakaryoblastic Leukemia (AMKL) cell line).

[1] = tested on: NKL (a Natural Killer Cell Lymphoma (NKCL) cell line); test: Cancer cell line proliferation analysis (CellTiter-Glo), NKL; assay type: cell-based; details: NKL cells, 72 hours at 37° C., cell viability, read-out: Cancer cell lines IC50 (nM) NKL
Protocol: as §1, §2

[2] = tested on: CMK (an Acute Megakaryoblastic Leukemia (AMKL) cell line); test: Cancer cell line proliferation analysis (CellTiter-Glo), CMK; assay type: cell-based; details: Homo sapiens; CMK cells, 72 hours at 37° C., cell viability; read-out: Cancer cell lines IC50 (nM) CMK
Protocol: as §1, §2

Ba/F3 JAK3 = test: Ba/F3 cell proliferation analysis (CellTiter-Glo), JAK3; assay type: cell-based, murine; details: Ba/F3 cells, 72 hours at 37° C., cell viability
Protocol: as §1, §2

JAK3 = JAK3 (Homo sapiens (Human), UniProt P52333); test: INVITROGEN Select Screening in vitro kinase activity assay; assay type: biochemical; details: enzymatic
Sequence of JAK3 (P52333 whole entry): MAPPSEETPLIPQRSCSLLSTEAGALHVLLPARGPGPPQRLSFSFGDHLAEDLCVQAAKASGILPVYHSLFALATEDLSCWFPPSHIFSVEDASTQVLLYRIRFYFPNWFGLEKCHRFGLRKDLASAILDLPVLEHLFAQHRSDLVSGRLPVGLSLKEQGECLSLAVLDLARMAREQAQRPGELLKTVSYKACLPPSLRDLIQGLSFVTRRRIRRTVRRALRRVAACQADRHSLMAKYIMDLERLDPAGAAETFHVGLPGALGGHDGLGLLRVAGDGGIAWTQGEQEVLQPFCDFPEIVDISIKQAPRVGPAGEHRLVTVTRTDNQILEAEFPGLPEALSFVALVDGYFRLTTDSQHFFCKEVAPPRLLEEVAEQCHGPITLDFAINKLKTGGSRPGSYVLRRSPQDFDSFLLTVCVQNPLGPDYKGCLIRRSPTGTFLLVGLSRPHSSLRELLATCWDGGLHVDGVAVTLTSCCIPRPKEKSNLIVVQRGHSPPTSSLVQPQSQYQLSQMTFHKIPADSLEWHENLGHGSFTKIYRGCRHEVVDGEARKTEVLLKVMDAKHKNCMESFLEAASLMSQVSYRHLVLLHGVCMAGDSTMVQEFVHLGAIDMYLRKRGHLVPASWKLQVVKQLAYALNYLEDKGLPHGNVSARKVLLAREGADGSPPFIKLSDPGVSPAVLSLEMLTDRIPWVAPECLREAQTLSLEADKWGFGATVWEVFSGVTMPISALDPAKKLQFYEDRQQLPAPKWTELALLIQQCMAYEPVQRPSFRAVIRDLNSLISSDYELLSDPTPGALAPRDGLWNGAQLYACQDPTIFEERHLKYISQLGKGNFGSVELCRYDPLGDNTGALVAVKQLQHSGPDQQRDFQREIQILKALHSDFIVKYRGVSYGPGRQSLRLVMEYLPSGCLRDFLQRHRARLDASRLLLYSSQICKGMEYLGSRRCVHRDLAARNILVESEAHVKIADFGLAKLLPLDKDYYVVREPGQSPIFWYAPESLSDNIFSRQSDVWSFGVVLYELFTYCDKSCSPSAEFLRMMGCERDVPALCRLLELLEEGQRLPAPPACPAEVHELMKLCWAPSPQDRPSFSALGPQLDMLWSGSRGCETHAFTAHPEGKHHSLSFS
Description: The in vitro activity of the compounds described herein in inhibiting JAK3 and other kinases were obtained using an INVITROGEN Select Screening assay as known in the art.

Ba/F3 JAK1 = test: Ba/F3 cell proliferation analysis (CellTiter-Glo), JAK1; assay type: cell-based, murine; details: Mus musculus, BaF3; Ba/F3 cells, 72 hours at 37° C., cell viability
Protocol: as §1, §2

Ba/F3 JAK2 = test: Ba/F3 cell proliferation analysis (CellTiter-Glo), JAK2; assay type: cell-based, murine; details: Mus musculus, BaF3; Ba/F3 cells, 72 hours at 37° C., cell viability
Protocol: as §1
as §2, with “Luminescent measurement is performed using the 2104 Envision® Multilabel Reader (PerkinElmer Inc.).” left out

Ba/F3 ABL = test: Ba/F3 cell proliferation analysis (CellTiter-Glo), ABL; assay type: cell-based, murine; details: Mus musculus, Ba/F3 cells, 72 hours at 37° C., cell viability
Protocol: as §1
as §2, with “Luminescent measurement is performed using the 2104 Envision® Multilabel Reader (PerkinElmer Inc.).” left out

| IC50 (Ba/F3 TYK2) [nM] | IC50 [2] [nM] | IC50 (Ba/F3 JAK3) [nM] | IC50 (Ba/F3 JAK3; listed as compound 2) [nM] | IC50 (JAK3) [nM] | IC50 (Ba/F3 JAK1) [nM] | IC50 (Ba/F3 JAK2) [nM] | IC50 (Ba/F3 JAK3; Mus musculus, BaF3, 72 h) [nM] | IC50 (Ba/F3 ABL; BaF3) [nM] | IC50 (Ba/F3 ABL; BaF3, 72 h, heading: Ba/F3 IC50 ABL) [nM] | SMILES | IC50 [1] [nM] |
| --- | --- | --- | --- | --- | --- | --- | --- | --- | --- | --- | --- |
| 1820 | 273 | 382 | 45 | 45 |  |  |  |  |  | C=CC(=O)Nc1cccc(CNc2nc(Nc3ccc(N4CCN(CCCNC(=O)CC5[C@H]6C[C@@H]7C[C@@H](C[C@H]5C7)C6)CC4)cc3OC)ncc2Cl)c1 (stereo partly shown) [Compound 2] | 193 |
| 542 | 490 |  |  | 12.8 | 1120 | 1220 | 72.7 | 2260 |  | C=CC(=O)Nc1cccc(CNc2nc(Nc3ccc(N4CCN(CCCNC(=O)CC5[C@H]6C[C@@H]7C[C@@H](C[C@H]5C7)C6)CC4)cc3)ncc2Cl)c1 (stereo partly shown) [Compound 3] |  |
| 372 | 38 |  |  | 7.95 | 252 |  | 64.8 | 623 |  | C=CC(=O)Nc1cccc(CNc2nc(Nc3ccc(N4CCN(CCCCNC(=O)CC5[C@H]6C[C@@H]7C[C@@H](C[C@H]5C7)C6)CC4)cc3)ncc2Cl)c1 (stereo partly shown) [Compound 4] |  |
| 676 |  |  |  | 4.9 | 1110 |  | 94 |  |  | C=CC(=O)Nc1cccc(CNc2nc(Nc3cnn(CCN4CCN(C(=O)CC5[C@H]6C[C@@H]7C[C@@H](C[C@H]5C7)C6)CC4)c3)ncc2Cl)c1 (stereo partly shown) [Compound 5] |  |
|  |  |  |  | 5.9 | 2080 | 3180 | 38 |  | 3860 | C=CC(=O)Nc1cccc(CNc2nc(Nc3cnn(C4CCN(C(=O)CC5[C@H]6C[C@@H]7C[C@@H](C[C@H]5C7)C6)CC4)c3)ncc2Cl)c1 (stereo partly shown) [Compound 6] |  |
| 794 |  |  |  | 6.8 | 954 | 1440 | 105 | 2280 |  | C=CC(=O)Nc1cccc(CNc2nc(Nc3cnn(C4CCN(CCNC(=O)CC5[C@H]6C[C@@H]7C[C@@H](C[C@H]5C7)C6)CC4)c3)ncc2Cl)c1 (stereo partly shown) [Compound 7] |  |
